Laboratory results: US20120165346A1, “Compounds and their use as BACE inhibitors” (ASTRAZENECA AB, priority 2010, published 2012)

How the values were obtained:
[1] = tested on: sAPPβ release, SH-SY5Y cells; test: sAPPβ release assay; format: cell-based; conditions: Homo sapiens, compounds incubated 17 h
Protocol: SH-SY5Y cells were cultured in DMEM/F-12 with Glutamax, 10% FCS and 1% non-essential amino acids and cryopreserved and stored at −140° C. at a concentration of 7.5−9.5×10^6 cells per vial. Thaw cells and seed at a conc. of around 10000 cells/well in DMEM/F-12 with Glutamax, 10% FCS and 1% non-essential amino acids to a 384-well tissue culture treated plate, […] cell susp/well. The cell plates were then incubated for 7-24 h at 37° C., 5% CO2. The cell medium was removed, followed by addition of 30 μL compound diluted in DMEM/F-12 with Glutamax, 10% FCS, 1% non-essential amino acids and 1% PeSt to a final conc. of 1% DMSO. The compounds were incubated with the cells for 17 h (overnight) at 37° C., 5% CO2. Meso Scale Discovery (MSD) plates were used for the detection of sAPPβ release. MSD sAPPβ plates were blocked in 1% BSA in Tris wash buffer (40 μL/well) for 1 h on shake at r.t. and washed 1 time in Tris wash buffer (40 μL/well). 20 μL of medium was transferred to the pre-blocked and washed is MSD sAPPβ microplates, and the cell plates were further used in an ATP assay to measure cytotoxicity. The MSD plates were incubated with shaking at r.t. for 2 h and the media discarded. 10 μL detection antibody was added (1 nM) per well followed by incubation with shaking at r.t. for 2 h and then discarded. 40 μL Read Buffer was added per well and the plates were read in a SECTOR Imager.

[2] = target: T1, human β-Secretase (AA 1-AA 460), sBACE-Fc (Homo sapiens, UniProt P56817); test: Diluted TR-FRET assay; format: biochemical; conditions: footnote a: diluted FRET assay, 50 times less enzyme, 6.5 h reaction time at r.t.; read-out: IC50 in TR-FRET assay (IC50 from the diluted FRET assay)
T1 construct: soluble part of the human β-Secretase (AA 1-AA 460) was cloned; Fc domain of IgG1; made in house
T1 sequence (P56817 22-460): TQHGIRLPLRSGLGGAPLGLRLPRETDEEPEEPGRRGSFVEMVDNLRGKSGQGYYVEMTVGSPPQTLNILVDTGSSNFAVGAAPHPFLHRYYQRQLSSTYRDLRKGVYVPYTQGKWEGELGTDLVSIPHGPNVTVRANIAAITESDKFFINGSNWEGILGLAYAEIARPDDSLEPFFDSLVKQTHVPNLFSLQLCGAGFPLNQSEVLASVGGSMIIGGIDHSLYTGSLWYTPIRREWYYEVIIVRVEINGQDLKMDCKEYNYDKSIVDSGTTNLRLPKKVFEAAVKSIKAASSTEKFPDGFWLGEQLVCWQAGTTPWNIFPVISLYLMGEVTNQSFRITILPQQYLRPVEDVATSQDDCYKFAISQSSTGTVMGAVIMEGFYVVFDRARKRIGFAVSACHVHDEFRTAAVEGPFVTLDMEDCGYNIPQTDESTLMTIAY
Protocol: The cDNA for the soluble part of the human β-Secretase (AA 1-AA 460) was cloned using the ASP2-Fc10-1-IRES-GFP-neoK mammalian expression vector. The gene was fused to the Fc domain of IgG1 (affinity tag) and stably cloned into HEK 293 cells.
The robotic systems Biomek FX and Velocity 11 were used for all liquid handling and the enzyme and substrate solutions were kept on ice until they were placed in the robotic system. Enzyme (9 μA) was added to the plate then 1 μA of compound in dimethylsulphoxide was added, mixed and pre-incubated for 10 minutes. Substrate (10 μA) was then added, mixed and the reaction proceeded for 15 minutes at r.t. The reaction was stopped with the addition of Stop solution (7 μl, NaAcetate, pH 9). […] The dimethylsulphoxide control, instead of test compound, defined the 100% activity level and 0% activity was defined by wells lacking enzyme (replaced with reaction buffer).

Row | IC50 [1] [nM] | IC50 [2] [nM] | SMILES
1 | 2 | 8 | CCn1cc(C2(c3cccc(-c4cncc(C#N)c4)c3)N=C(N)c3c(F)cccc32)cc(C)c1=O (centres unmarked) [Example 8, 5-(3-(3-Amino-1-(1-ethyl-5-methyl-6-oxo-1,6-dihydropyridin-3-yl)-4-fluoro-1H-isoindol-1-yl)phenyl)nicotinonitrile]
2 | 4 | 13 | CCn1cc(C2(c3cccc(-c4cncc(F)c4)c3)N=C(N)c3c(F)cccc32)cc(C)c1=O (centres unmarked) [Example 9, 5-(3-Amino-4-fluoro-1-(3-(5-fluoropyridin-3-yl)phenyl)-1H-isoindol-1-yl)-1-ethyl-3-methylpyridin-2(1H)-one]
3 | 4 | 6 | CC#Cc1cncc(-c2cccc(C3(c4cc(C(F)F)c(=O)n(CC)c4)N=C(N)c4c(F)cccc43)c2)c1 (centres unmarked) [Example 23, 5-(3-Amino-4-fluoro-1-(3-(5-(prop-1-ynyl)pyridin-3-yl)phenyl)-1H-isoindol-1-yl)-3-(difluoromethyl)-1-ethylpyridin-2(1H)-one]
4 | 2 | 5 | CC#Cc1ccnc(-c2cccc([C@@]3(c4cc(C)c(=O)n(CC)c4)N=C(N)c4c(F)cccc43)c2)c1 [Example 25, (R)-5-(3-Amino-4-fluoro-1-(3-(4-(prop-1-ynyl)pyridin-2-yl)phenyl)-1H-isoindol-1-yl)-1-ethyl-3-methylpyridin-2(1H)-one]
